Reference: ChEMBL document CHEMBL1128913, “Synthesis and in vitro cytotoxicity of cryptophycins and related analogs” (Bioorg Med Chem Lett, 1996)
In brackets after ≈: the same amount, converted by molar mass.

What was measured:
Type in all cases: functional, cell-based
KB [1] = experiment: Cytotoxic activity against KBV vinblastine resistant KB cells; conditions: Homo sapiens
DA-3 cell line = experiment: Cytotoxic activity against DA-3 mouse mammary adenocarcinoma cells
HT-29 = experiment: Cytotoxic activity against HT-29 human colon adenocarcinoma cells
B16-F10 = experiment: Cytotoxic activity against B16F10 mouse melanoma cells
KB [2] = experiment: Cytotoxic activity against Human nasopharyngeal KB cell line
KB [3] = experiment: Cytotoxic activity against KB human nasopharyngeal carcinoma cells

COc1ccc(C[C@H]2NC(=O)/C=C/C[C@@H]([C@H](C)/C=C/c3ccccc3)OC(=O)[C@H](CC(C)C)OC(=O)[C@H](C)CNC2=O)cc1Cl [CRYPTOPHYCIN 3]
IC50 (KB [1]): 5 nM | IC50 (DA-3 cell line): 1 nM | IC50 (HT-29): 1 nM | IC50 (B16-F10): 2 nM | IC50 (KB [2]): 3 ng/mL (≈ 4.69 nM) | IC50 (KB [3]): 2 nM
